Molecular target: TNFα trimer (Homo sapiens, UniProt P01375)
Experiment: TNFα FP Competitive Binding Assay
Conditions: FP binding assay; 20 nM TNFα trimer, 1 nM OregonGreen488 probe; read-out: TNF IC50
How it was run: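 Fluorescence polarization competition: 20 nM TNFα trimer with 1 nM fluorescein-labelled probe in HEPES/NaCl/EDTA/Triton X-100 buffer, compound in 12-point 1:3 dilutions (final top 338 μM or 100 μM). Incubated 18-24 h, background-subtracted mP read, variable-slope dose-response fitting.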

Sequence of TNFα trimer (P01375 77-233 limits assumed): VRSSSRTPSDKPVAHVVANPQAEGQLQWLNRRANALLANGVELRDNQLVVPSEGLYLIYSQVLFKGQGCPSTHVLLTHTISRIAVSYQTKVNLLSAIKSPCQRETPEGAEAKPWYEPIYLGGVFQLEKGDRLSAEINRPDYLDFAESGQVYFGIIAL

Compound | IC50 [nM]
Cn1c(=O)c2ccc(-c3cnc(C(C)(C)O)nc3)cc2n1Cc1cc([C@@H]2CCC[C@@H]2C#N)ccc1OC(F)F (relative stereo) [Example 112, 2-(4-(Difluoromethoxy)-3-((6-(2-(2-hydroxypropan-2-yl)pyrimidin-5-yl)-2-methyl-3-oxo-2,3-dihydro-1H-indazol-1-yl)methyl)phenyl)cyclopentanecarbonitrile] | 1000 to 10000
COCc1cccc(OC(F)F)c1Cn1c2cc(-c3cnc(C(C)(C)O)nc3)ccc2c(=O)n1C [Example 77, 1-(2-(Difluoromethoxy)-6-(methoxymethyl)benzyl)-6-(2-(2-hydroxypropan-2-yl)pyrimidin-5-yl)-2-methyl-1H-indazol-3(2H)-one] | 1000 to 10000
CC(=O)N1CCN(c2ncc(-c3ccc4c(=O)n(C)n(Cc5c(CO)cccc5OC(F)F)c4c3)cn2)[C@H](C)C1 [Example 65, (R)-6-(2-(4-acetyl-2-methylpiperazin-1-yl)pyrimidin-5-yl)-1-(2-(difluoromethoxy)-6-(hydroxymethyl)benzyl)-2-methyl-1H-indazol-3(2H)-one] | < 1000
COc1cc2c(=O)n(C)n(Cc3ccccc3OC(F)F)c2cc1-c1cnc(N2CCN(C(=O)CO)[C@H](C)C2)nc1 [Example 47, (R)-1-(2-(Difluoromethoxy)benzyl)-6-(2-(4-(2-hydroxyacetyl)-3-methylpiperazin-1-yl)pyrimidin-5-yl)-5-methoxy-2-methyl-1H-indazol-3(2H)-one] | 1000 to 10000
Cn1c(=O)c2ccc(-c3cnc(NC4CCOC4)nc3)cc2n1Cc1ccccc1OC(F)F (stereo not drawn) [Example 2.20] | 1000 to 10000
Cn1c(=O)c2ccc(-c3cnc(N4CCOCC4)nc3)cc2n1Cc1c(F)cccc1OC(F)F [Example 1, 1-(2-(Difluoromethoxy)-6-fluorobenzyl)-2-methyl-6-(2-morpholinopyrimidin-5-yl)-1H-indazol-3(2H)-one] | < 1000
Cn1c(=O)c2ccc(-c3cnc(C4(O)CN(C(=O)CO)C4)nc3)cc2n1Cc1ccccc1OC(F)F [Example 91, 1-(2-(Difluoromethoxy)benzyl)-6-(2-(3-hydroxy-1-(2-hydroxyacetyl)azetidin-3-yl)pyrimidin-5-yl)-2-methyl-1H-indazol-3(2H)-one] | 1000 to 10000
Cn1c(=O)c2ccc(-c3cnc(N4CC(CO)C4)nc3)cc2n1Cc1ccccc1OC(F)F [Example 2.11] | 1000 to 10000
Cc1ccc(OC(F)F)c(Cn2c3cc(-c4cnc(C5(C)CCN(C)C5)nc4)ccc3c(=O)n2C)c1 (stereo not drawn) [Example 88, 1-(2-(Difluoromethoxy)-5-methylbenzyl)-6-(2-(1,3-dimethylpyrrolidin-3-yl)pyrimidin-5-yl)-2-methyl-1H-indazol-3(2H)-one] | 1000 to 10000
Cn1c(=O)c2ccc(-c3cnc(C(C)(C)O)nc3)cc2n1Cc1cc([C@H]2CC[C@@H](C#N)C2)ccc1OC(F)F (racemic) [Example 97] | < 1000
Cc1ccc(OC(F)F)c(Cn2c3nc(-c4cnc(C(C)(C)O)nc4C)c(F)cc3c(=O)n2C)c1 [Example 98, 1-(2-(Difluoromethoxy)-5-methylbenzyl)-5-fluoro-6-(2-(2-hydroxypropan-2-yl)-4-methylpyrimidin-5-yl)-2-methyl-1,2-dihydro-3H-pyrazolo[3,4-b]pyridin-3-one] | < 1000
[2H]C([2H])([2H])n1c(=O)c2ccc(-c3cnc(N4CCN(C(C)=O)[C@H](C)C4)nc3)cc2n1Cc1cc(C)ccc1OC(F)F [Example 63, (R)-6-(2-(4-Acetyl-3-methylpiperazin-1-yl)pyrimidin-5-yl)-1-(2-(difluoromethoxy)-5-methylbenzyl)-2-methyl-d3-1H-indazol-3(2H)-one] | < 1000
COCc1cccc(OC(F)F)c1Cn1c2cc(-c3cnc(N4CCN5C(=O)NC[C@@H]5C4)nc3)ccc2c(=O)n1C [Example 33, (R)-7-(5-(1-(2-(Difluoromethoxy)-6-(methoxymethyl)benzyl)-2-methyl-3-oxo-2,3-dihydro-1H-indazol-6-yl)pyrimidin-2-yl)hexahydroimidazo[1,5-a]pyrazin-3(2H)-one] | < 1000
Cn1c(=O)c2ccc(-c3cnc(N4CC[C@@H](O)C4)nc3)cc2n1Cc1ccccc1OC(F)F [Example 2.5] | > 10000
C[C@@H]1CN(c2ncc(-c3ccc4c(=O)n(C)n([C@@H](C)c5ccccc5F)c4c3)cn2)CCN1C(=O)CO (single isomer, unassigned) [Example 85] | < 1000
Cn1c(=O)c2ccc(-c3cnc(N4CCOCC4)nc3)cc2n1Cc1ccc(F)cc1 [Example 1.11] | > 10000
Cn1c(=O)c2ccc(-c3cnc(N4CC[C@H](C(=O)O)C4)nc3)cc2n1Cc1ccccc1OC(F)F [Example 2.15] | > 10000
Cc1ccc(OC(F)F)c(Cn2c3cc(-c4ccc(C(C)(C)N)nc4)c(F)cc3c(=O)n2C)c1 [Example 89, 6-(6-(2-Aminopropan-2-yl)pyridin-3-yl)-1-(2-(difluoromethoxy)-5-methylbenzyl)-5-fluoro-2-methyl-1H-indazol-3(2H)-one 2,2,2-trifluoroacetate] | < 1000
Cn1c(=O)c2ccc(-c3cnc(N4CCN5C(=O)CCC5C4)nc3)cc2n1Cc1ccccc1OC(F)F (stereo not drawn) [Example 2.23] | < 1000
COC[C@H]1CCCN1c1ncc(-c2ccc3c(=O)n(C)n(Cc4ccccc4OC(F)F)c3c2)cn1 [Example 2.2] | < 1000
Cn1c(=O)c2ccc(-c3cnc(N4CCOCC4)nc3)cc2n1Cc1cccc(OC(F)F)c1 [Example 1.2] | 1000 to 10000
Cc1ccc(OC(F)F)c(Cn2c3cc(-c4cnc(N5CCN(C(=O)CO)[C@H](C)C5)nc4)ccc3c(=O)n2C)n1 [Example 76, (R)-1-((3-(Difluoromethoxy)-6-methylpyridin-2-yl)methyl)-6-(2-(4-(2-hydroxyacetyl)-3-methylpiperazin-1-yl)pyrimidin-5-yl)-2-methyl-1H-indazol-3(2H)-one] | < 1000
COCCCNc1ncc(-c2ccc3c(=O)n(C)n(Cc4ccccc4OC(F)F)c3c2)cn1 [Example 2.22] | 1000 to 10000
Cc1ccc(OC(F)F)c(Cn2c3cc(-c4cnn5c(C(C)O)cnc5c4)ccc3c(=O)n2C)c1 (racemic) [Example 106, 1-(2-(Difluoromethoxy)-5-methylbenzyl)-6-(3-(1-hydroxyethyl)imidazo[1,2-b]pyridazin-7-yl)-2-methyl-1H-indazol-3(2H)-one] | < 1000
Cn1c(=O)c2ccc(-c3cnc(NC4COC4)nc3)cc2n1Cc1ccccc1OC(F)F [Example 2.10] | 1000 to 10000
Cn1c(=O)c2ccc(-c3cnc(N4CCN5C(=O)NC[C@@H]5C4)nc3)cc2n1Cc1ccccc1OC(F)F (single isomer, unassigned) [Example 6] | < 1000
Cn1c(=O)c2ccc(-c3cnc(C(C)(C)O)nc3)cc2n1Cc1cc(NCc2ccccn2)ccc1Cl [Example 42, 1-(2-Chloro-5-((pyridin-2-ylmethyl)amino)benzyl)-6-(2-(2-hydroxypropan-2-yl)pyrimidin-5-yl)-2-methyl-1H-indazol-3(2H)-one] | 1000 to 10000
CN1CCCC(Nc2ccc(Cl)c(Cn3c4cc(-c5cnc(C(C)(C)O)nc5)ccc4c(=O)n3C)c2)C1=O (stereo not drawn) [Example 83, 1-(2-Chloro-5-((1-methyl-2-oxopiperidin-3-yl)amino)benzyl)-6-(2-(2-hydroxypropan-2-yl)pyrimidin-5-yl)-2-methyl-1H-indazol-3(2H)-one] | 1000 to 10000
Cn1c(=O)c2ccc(-c3cnc(N4CCOCC4)nc3)nc2n1Cc1ccccc1OC(F)F [Example 15, 1-(2-(Difluoromethoxy)benzyl)-2-methyl-6-(2-morpholinopyrimidin-5-yl)-1H-pyrazolo[3,4-b]pyridin-3(2H)-one] | 1000 to 10000

Now from value to compound:

IC50 [nM] | Compound
> 10000 | Cn1c(=O)c2ccc(-c3cnn(C4CCOCC4)c3)cc2n1Cc1ccccc1OC(F)F [Example 5.7]
1000 to 10000 | Cn1c(=O)c2ccc(-c3cnc(C(C)(C)O)nc3)cc2n1Cc1ccccc1OC(F)F [Example 10.1]
< 1000 | Cc1ccc(OC(F)F)c(Cn2c3cc(-c4cnc(N5CCN(C(=O)CO)C[C@@H]5C)nc4)ccc3c(=O)n2C)c1 [Example 22.15]
< 1000 | CC(=O)N1CCN(c2ncc(-c3ccc4c(=O)n(C)n(Cc5cc(C)ccc5OC(F)F)c4c3)cn2)C[C@@H]1CO [Example 22.11]
1000 to 10000 | Cn1c(=O)c2ccc(-c3cnc(C4(O)CCN(C(=O)CN)CC4)nc3)cc2n1Cc1ccccc1OC(F)F [Example 14.3]
< 1000 | Cn1c(=O)c2ccc(-c3cnc(C(C)(C)O)nc3)cc2n1Cc1cc(CO)ccc1OC(F)F [Example 16.7]
1000 to 10000 | C[C@@H]1CN(c2ncc(-c3cc4c(cc3C#N)c(=O)n(C)n4Cc3ccccc3OC(F)F)cn2)CCN1C(=O)CO [Example 23.2]
1000 to 10000 | Cc1ccc(OC(F)F)c(Cn2c3cc(-c4cnc(N5CCC[C@H]5CO)nc4)ccc3c(=O)n2C)c1 [Example 22.7]
< 1000 | Cc1ccc(OC(F)F)c(Cn2c3cc(-c4cnc(N5CCN(C(=O)C6COC6)[C@H](C)C5)nc4)ccc3c(=O)n2C)c1 [Example 21.2]
< 1000 | Cc1ccc(OC(F)F)c(Cn2c3cc(-c4cnc(N5CCN(C(=O)[C@H](C)N)[C@@H](C)C5)nc4)ccc3c(=O)n2C)c1 [Example 14.6]
< 1000 | Cc1ccc(OC(F)F)c(Cn2c3cc(-c4cnc(N5CCN(C(=O)CC#N)[C@@H](C)C5)nc4)ccc3c(=O)n2C)c1 [Example 25.1]
< 1000 | Cc1ccc(OC(F)F)c(Cn2c3cc(-c4cnc(N5CCN(C(=O)C6CCO6)[C@H](C)C5)nc4)ccc3c(=O)n2C)c1 (stereo partly drawn) [Example 21.3]
1000 to 10000 | Cc1ccc(OC(F)F)c(Cn2c3cc(-c4cnc(C(C)(C)O)nc4)ccc3c(=O)n2C(F)F)c1 [Example 26.2]
< 1000 | Cc1c(-c2cnc(N3CCN(C(=O)CO)[C@H](C)C3)nc2)ccc2c(=O)n(C)n(Cc3ccccc3OC(F)F)c12 [Example 24.12]
1000 to 10000 | CC(=O)N1CCN(c2ncc(-c3ccc4c(=O)n(C)n(Cc5cc(CC(C)C#N)ccc5OC(F)F)c4c3)cn2)C[C@H]1C (stereo partly drawn) [Example 27.4]
< 1000 | Cc1ccc(OC(F)F)c(Cn2c3cc(-c4cnc(N5CCN(C(=O)CN)[C@H](C)C5)nc4)ccc3c(=O)n2C)c1 [Example 14.10]

Reference: patent publication US10160748B2 (AbbVie Inc., priority 2015, dated 2018)
